Results as given in US9526766B2, “Potentiation of antibiotic treatment with a protein-lipid complex” (priority 2012, dated 2016).
In brackets after ≈: the same amount, converted by molar mass. Entries after “also recorded” stand apart in the source; their conditions may differ. Where two headings read alike, the source gives them in different places.

What was measured:
Staphylococcus aureus [1] = experiment: Minimal bactericidal concentration (MBC) from MIC plates; format: cell-based; details: antibiotic alone
Excerpt: The MBC was defined as the lowest concentration of antimicrobials yielding colony counts <0.1% (3 log10 reduction) of the initial inoculum (as determined by colony counts from the growth control well immediately after inoculation) as described.

Staphylococcus aureus [2] = experiment: Bactericidal activity on planktonic cultures; format: cell-based; details: antibiotic alone
Experimental: (§1) Methodology: In late logarithmic growth phase, the bacteria were harvested by centrifugation at 12,000×g for 10 minutes and resuspended in phosphate-buffered saline (PBS; […], […], […], pH 7.4). Appropriate dilutions of the bacteria were suspended in PBS and treated with indicated concentrations of ALAFAC and/or antibiotics for various times. The effect on bacterial viability was assessed by plating serial dilutions of bacterial sample on tryptic soy agar plates containing 5% sheep blood (viable counts) and determining viable colony forming units after overnight growth at 37° C.

[3] = tested on: Staphylococcus aureus biofilms; experiment: Static biofilm model, viable counts; format: cell-based; details: for Biofilm bactericidal activity, reduction in viable bacteria: MRSA NRS 70 and MSSA 11090306 biofilms, 24 hours, ALAFAC 200 μg/mL (12 μM), methicillin 250 μg/mL (660 μM); for Biofilm bactericidal activity, reduction in viable bacteria / Biofilm viability: alone or combined; for Biofilm death / reduction in biofilm biomass: methicillin 1,000 μg/ml monotherapy, combination with 100 μg/ml ALAFAC; for Minimum antibiotic concentration for bactericidal (>3 log10) activity on biofilms: 12 hours, antibiotic alone; for Biofilm viability: NRS 1 and NRS 384 biofilms, ALAFAC 500 μg/ml (30 μM), gentamicin 50 μg/ml (105 μM)
Experimental: Static Biofilm Model. Staphylococci were grown in TSB to mid-logarithmic phase (OD600=0.5), washed, and resuspended in fresh pre-warmed medium to a density of 2×10^4 CFU in 500 μl volume, and suspensions were used to seed polystyrene 24-well plates. Bacteria were cultured at 37° C. for 12 hours, after which biofilms were washed with PBS to eliminate planktonic bacteria and were exposed to TSB with indicated concentrations of ALAFAC and/or antibiotics for 24 hours at 37° C. Biofilms were then washed in PBS, sonicated and detached by scraping the surface in the presence of 100 μL PBS followed by a rinse with 100 μL PBS. Collected cells were vortexed twice for 20 seconds at high speed and the dispersed biofilm cells were first observed by microscopy to ensure proper dispersion and then diluted in a 10-fold dilution series where 100 μl of each dilution was plated on blood agar plates to determine viable CFUs per ml after overnight growth at 37° C. Colony counts from plates carrying 20-200 colonies were used to determine the viable counts and are reported as the total number of colony-forming units per biofilm.

Acinetobacter baumanni = experiment: MIC by broth microdilution, antibiotics with and without ALAFAC; format: cell-based; details: agent alone
Experimental: (§2) Methodology: Minimal inhibitory concentrations (MICs) were determined in 96-well microtiter plates using the microdilution method according to approved standards of the CLSI except that Todd-Hewitt medium supplemented with 0.5% yeast extract, which yields reproducible MIC results was used as the test medium for S. pneumoniae. For the remaining species Mueller-Hinton medium was used as indicated by the CLSI standard. Each well contained two-fold dilutions of antibiotic, was seeded with a final bacterial concentration of 10^5 CFU/mL, and was incubated for 18 h at 37° C. in a Synergy II microplate reader (Biotek, Winooski, Vt.) where the OD600 was recorded every 5 minutes to monitor bacterial growth. The MIC was defined as the lowest concentration of antimicrobial agent solution at which no increase in OD600 was detected.
(§3) In vitro susceptibility tests. Minimal inhibitory concentrations (MICs) were determined in 96-well microtiter plates using the microdilution method according to approved standards of the CLSI except that Todd-Hewitt medium supplemented with 0.5% yeast extract, which yields reproducible MIC results was used as the test medium for S. pneumoniae. MICs for A. baumanni, and M. catarrhalis were determined in MH media. Two-fold dilutions of a starting antibiotic concentration was added in triplicate into microtiter plate wells (in 96-well plates), were seeded with a final bacterial concentration of ˜10^5 colony forming units (CFU)/mL, and was incubated for 18 h in ambient air at 37° C. in a Synergy II microplate reader (Biotek, Winooski, Vt.) where the OD600 was recorded every 5 minutes to monitor bacterial growth. The MIC was defined as the lowest concentration of antimicrobial agent solution at which no increase in OD600 was detected.

Moraxella catarrhalis = experiment: as above; format: cell-based; details: agent alone
Experimental: as §2, §3

Streptococcus pneumoniae = experiment: Short-time kill assay on planktonic cultures; format: cell-based; details: for Minimum antibiotic concentration for bactericidal (>3 log10) activity, planktonic: within 4-6 hours, antibiotic alone
Experimental: as §1
Short-time kill assays. In late logarithmic growth phase, the bacteria were harvested by centrifugation at 12,000×g for 10 minutes and resuspended in phosphate-buffered saline (PBS; 30 mM Na2HPO4, 10 mM KH2PO4, […], pH 7.4). Appropriate concentrations of the bacteria (around 10^8 colony forming units per ml) were suspended in PBS and treated with indicated concentrations of ALAFAC and/or antibiotics for various times. The effect on bacterial viability was assessed by plating serial dilutions of bacterial sample on tryptic soy agar plates containing 5% sheep blood (viable counts) and determining viable CFUs after overnight growth at 37° C.

S. pneumoniae D39 = experiment: Autolysis by optical density at 600 nm; format: cell-based, Streptococcus pneumoniae
Excerpt: Most agents that kill pneumococci, including […] and cell wall-active anti-bacterials activate the major autolysin LytA to induce lysis of the bacteria, which can easily be detected by eye as a clearing of the bacterial suspension upon treatment and measured by a decrease in OD600 nm over time. In comparison, antibiotics acting on bacterial DNA, RNA, or protein synthesis show reduced, though still significant, levels of cell lysis. However, during our combination treatments with […] and gentamicin above we observed no detectable lysis. […] The lack of lysis from combination treatment may be beneficial for the host in reducing the host inflammation associated with bacterial components after lysis.

[4] = S. aureus NRS384, within 4-6 hours
[5] = D39, 1 hour, ALAFAC 50 μg/ml, gentamicin 50 μg/ml, alone or combined, 7.7 log10 inoculum
[6] = sublethal ALAFAC (50 μg/ml), low gentamicin, alone or combined

COc1cccc(OC)c1C(=O)N[C@@H]1C(=O)N2[C@@H]1SC(C)(C)[C@@H]2C(=O)O [Methicillin, methicillin] was tested, and the MBC (Staphylococcus aureus [1]; Staphylococcus aureus, NRS1, S. aureus NRS1, read-out: MBC) was > 256 µg/mL, the MBC (Staphylococcus aureus [1]; Staphylococcus aureus, NRS70, S. aureus NRS70, read-out: MBC) was 128 µg/mL (≈ 336 µM) and the MBC (Staphylococcus aureus [1]; Staphylococcus aureus, NRS71, S. aureus NRS71, read-out: MBC) was > 256 µg/mL. For the same molecule, the MBC (Staphylococcus aureus [1]; Staphylococcus aureus, NRS100, S. aureus NRS100, read-out: MBC) was > 256 µg/mL, the MBC (Staphylococcus aureus [1]; Staphylococcus aureus, NRS123, S. aureus NRS123, read-out: MBC) was > 256 µg/mL and the MBC (Staphylococcus aureus [1]; Staphylococcus aureus, NRS384, S. aureus NRS384, read-out: MBC) was > 256 µg/mL. The MBC (Staphylococcus aureus [1]; Staphylococcus aureus, S. aureus 11090306, read-out: MBC) was 64 µg/mL (≈ 168 µM), the MBC (Staphylococcus aureus [1]; Staphylococcus aureus, S. aureus 10307570, read-out: MBC) was > 256 µg/mL and the “Minimum antibiotic concentration for bactericidal (>3 log10) activity, planktonic” value (Staphylococcus aureus [2]; S. aureus 10307570) was >128 μg/ml. For the same molecule, the “Minimum antibiotic concentration for bactericidal (>3 log10) activity, planktonic” value (Staphylococcus aureus [2]; S. aureus 11090306) was 64 μg/ml, the “Minimum antibiotic concentration for bactericidal (>3 log10) activity, planktonic” value (Staphylococcus aureus [2]; S. aureus NRS1) was >128 μg/ml and the “Minimum antibiotic concentration for bactericidal (>3 log10) activity, planktonic” value (Staphylococcus aureus [2]; S. aureus NRS70) was 128 μg/ml. The “Minimum antibiotic concentration for bactericidal (>3 log10) activity, planktonic” value (Staphylococcus aureus [2]; S. aureus NRS71) was >128 μg/ml, the “Minimum antibiotic concentration for bactericidal (>3 log10) activity, planktonic” value (Staphylococcus aureus [2]; S. aureus NRS100) was >128 μg/ml and the “Minimum antibiotic concentration for bactericidal (>3 log10) activity, planktonic” value (Staphylococcus aureus [2]; S. aureus NRS123) was >128 μg/ml. For the same molecule, the “Minimum antibiotic concentration for bactericidal (>3 log10) activity, planktonic” value (Staphylococcus aureus [2]; [4]) was >128 μg/ml, the “Biofilm bactericidal activity, reduction in viable bacteria” value [3] was “failed to induce bactericidal activity” and the “Biofilm death / reduction in biofilm biomass” value (“Biofilm death / reduction” below) ([3]; MRSA NRS70 biofilm) was 0.16 log10. The “Biofilm death / reduction” value ([3]; MSSA 11090306 biofilm) was 1 log10, the “Minimum antibiotic concentration for bactericidal (>3 log10) activity on biofilms” value ([3]; S. aureus 11090306 biofilm) was >1000 μg/ml and the “Minimum antibiotic concentration for bactericidal (>3 log10) activity on biofilms” value ([3]; S. aureus NRS70 biofilm) was >1000 μg/ml.

With CC1(C)S[C@@H]2[C@H](NC(=O)Cc3ccccc3)C(=O)N2[C@H]1C(=O)O [Penicillin, penicillin G] the MIC (Acinetobacter baumanni; A. baumanni AB307) was >100 µg/mL, the MIC (Acinetobacter baumanni; A. baumanni AB979) was >100 µg/mL and the MIC (Acinetobacter baumanni; A. baumanni AB979, listed as penicillin) was “exceeded 100 μg/ml”. For the same molecule, the MIC (Acinetobacter baumanni; Acinetobacter, A. baumanni AB307, read-out: MIC) was > 100 µg/mL, the MIC (Moraxella catarrhalis; M. catarrhalis 7169 (MC7169)) was >50 µg/mL and the MIC (Moraxella catarrhalis; M. catarrhalis BC8 (MCBC8)) was >50 µg/mL. For the same molecule, the MIC (Moraxella catarrhalis; M. catarrhalis BC8 (MCBC8), listed as penicillin) was “exceeded 50 μg/ml”, the MIC (Moraxella catarrhalis; Moraxella catarrhalis, M. catarrhalis 7169 (MC7169), read-out: MIC) was > 50 µg/mL and the “Short-time killing (death of inoculum)” value (Streptococcus pneumoniae; D39, 4 hours, ALAFAC 50 μg/ml, penicillin G 20 μg/ml, alone or combined, 7.5 log10 inoculum) was “no bactericidal activity; also recorded: no death”. For the same molecule, the Short-time killing (Streptococcus pneumoniae; D39, penicillin G alone at 5,000 μg/ml, 4 hours) was ≤ 2.6 log10, the Short-time killing (Streptococcus pneumoniae; D39, penicillin alone at 50-fold higher concentration (1,000 μg/ml), 4 hours) was ≤ 2.6 log10 and the Bactericidal activity alone (Streptococcus pneumoniae; D39 and EF3030, 1 hour, penicillin G up to 5,000 μg/ml, erythromycin up to 1,000 μg/ml) was “lacked any bactericidal activity”. For the same molecule, the “Minimum antibiotic concentration for bactericidal (>3 log10) activity, planktonic” value (Streptococcus pneumoniae; S. pneumoniae D39) was >5,000 μg/ml, the “Minimum antibiotic concentration for bactericidal (>3 log10) activity, planktonic” value (Streptococcus pneumoniae; S. pneumoniae SP670) was >5,000 μg/ml and the Short-time killing (Streptococcus pneumoniae; SP670, penicillin 30 μg/mL alone or with ALAFAC 50 μg/mL, 4 hours) was “no bactericidal activity”.

Molecule gentamicin has an MIC (Acinetobacter baumanni; A. baumanni AB307) of 36 µg/mL, an MIC (Acinetobacter baumanni; A. baumanni AB979) of 2.5 µg/mL and an MIC (Moraxella catarrhalis; M. catarrhalis 7169 (MC7169)) of 25 µg/mL. The MIC (Moraxella catarrhalis; M. catarrhalis BC8 (MCBC8)) was 25 µg/mL, the MBC (Staphylococcus aureus [1]; S. aureus NRS1) was >256 µg/mL and the MBC (Staphylococcus aureus [1]; S. aureus NRS384) was 16 µg/mL. For the same molecule, the Short-time killing (Streptococcus pneumoniae; [5]) was “insignificant killing”, the “Minimum antibiotic concentration for bactericidal (>3 log10) activity, planktonic” value (Streptococcus pneumoniae; S. pneumoniae D39) was >500 μg/ml and the “Minimum antibiotic concentration for bactericidal (>3 log10) activity, planktonic” value (Streptococcus pneumoniae; S. pneumoniae EF3030) was >500 μg/ml. For the same molecule, the Short-time killing (Streptococcus pneumoniae; gentamicin alone at high concentrations, up to 1,000 μg/ml, 1 hour) was 1.4 log10, the Short-time killing (Streptococcus pneumoniae; gentamicin alone at high concentrations, up to 1,000 μg/ml, 1 hour, listed as gentamicin) was ≤ 1.4 log10 and the “Minimum antibiotic concentration for bactericidal (>3 log10) activity, planktonic” value (Staphylococcus aureus [2]; [4]) was 50 μg/ml. The Biofilm viability [3] was “Neither ALAFAC (500 μg/ml; 30 μM) nor gentamicin (50 μg/ml; 105 μM) had any effect” and the “Autolysis (OD600)” value (S. pneumoniae D39; [6]) was “failed to lyse”.

B1: ALAFAC: non-covalent complex of alpha-lactalbumin and fatty acid (oleic acid); labeled HAMLET or HL in drawings and tables (protein, UniProt P00709 20-142, looked up)
Alpha-lactalbumin: KQFTKCELSQLLKDIDGYGGIALPELICTMFHTSGYDTQAIVENNESTEYGLFQISNKLWCKSSQVPQSRNICDISCDKFLDDDITDDIMCAKKILDIKGIDYWLAHKALCTEKLEQWLCEKL
modifications: complexed with oleic acid
With B1 the Short-time killing (Streptococcus pneumoniae; [5]) was “insignificant killing”, the Short-time killing (Streptococcus pneumoniae; D39, 4 hours, ALAFAC 50 μg/ml, erythromycin 200 μg/ml, alone or combined, 7.2 log10 inoculum) was “insignificant bactericidal activity” and the “Fold higher concentration of ALAFAC alone required for activity similar to the combination” value (Streptococcus pneumoniae; D39, versus 50 μg/ml ALAFAC + 20 μg/ml penicillin G, 4 hours) was > 5 fold. The “Concentration required to eradicate each inoculum” value (Streptococcus pneumoniae; all pneumococcal strains, 1 hour) was “approximately 15 times the MIC”, the “Concentration to eradicate an inoculum of 10^8 pneumococci” value (Streptococcus pneumoniae; time-kill assay, 1 hour) was 300 μg/ml and the “Biofilm bactericidal activity, reduction in viable bacteria” value [3] was “failed to induce bactericidal activity”. The “Biofilm death / reduction” value ([3]; MRSA NRS70 biofilm) was “no death”, the “Biofilm death / reduction” value ([3]; MSSA 11090306 biofilm) was “no death” and the Biofilm viability [3] was “Neither ALAFAC (500 μg/ml; 30 μM) nor gentamicin (50 μg/ml; 105 μM) had any effect”. For the same molecule, the “Autolysis (OD600)” value (S. pneumoniae D39; ALAFAC alone at a lethal concentration (250 μg/ml)) was “rapid lysis” and the “Autolysis (OD600)” value (S. pneumoniae D39; [6]) was “small decrease in optical density”.
